Assay results from ChEMBL document CHEMBL1128978, “1-Hydroxy-1,4-dihydroquinoxaline-2,3-diones: Novel antagonists at NMDA receptor glycine sites” (Bioorg Med Chem Lett, 1996).
pIC50: −log10 of the molar value.

Assay: Electrophysiological assays in Xenopus oocytes expressing cloned NMDA receptor (NR1A/2C)
Format: cell-based
Conditions: Rattus norvegicus, Oocyte

pIC50	Compound
7.10	O=c1[nH]c2cc(Cl)c(Cl)cc2n(O)c1=O
4.27	O=c1[nH]c2c(Br)cc(C(F)(F)F)cc2n(O)c1=O
5.57	O=c1[nH]c2c(Br)c(Cl)c(Cl)cc2n(O)c1=O
5.74	Nc1c(Cl)c(Cl)cc2c1[nH]c(=O)c(=O)n2O
4.72	O=c1[nH]c2c(Cl)cc(Cl)cc2n(O)c1=O
4.60	O=c1[nH]c2c(Cl)cc(C(F)(F)F)cc2n(O)c1=O
5.60	O=c1[nH]c2c(Cl)c(Cl)c(Cl)cc2n(O)c1=O
4.70	O=c1[nH]c2c(Br)cc(Br)cc2n(O)c1=O

The remaining lines, values behind:

Compound	pIC50
Oc1nc2cc(C(F)(F)F)cc(Br)c2nc1O	5.60
Nc1c(Cl)c(Cl)cc2nc(O)c(O)nc12	7.03
Oc1nc2cc(C(F)(F)F)cc(Cl)c2nc1O	5.68
Oc1nc2cc(Cl)cc(Cl)c2nc1O	6.55
Oc1nc2cc(Br)cc(Br)c2nc1O	5.89
Oc1nc2cc(Cl)c(Cl)c(Br)c2nc1O	6.68
Oc1nc2cc(Cl)c(Cl)c(Cl)c2nc1O	7.52
Oc1nc2cc(Cl)c(Cl)cc2nc1O [2,3-DIHYDROXY-6,7-DICHLOROQUINOXALINE]	6.89
